Measured values from ChEMBL document CHEMBL5728227, “Substituted pyrazole derivatives as selective CDK12/13 inhibitors” (2021).

Molecular target: Cyclin-dependent kinase 7 (Homo sapiens, UniProt P50613)
Test: Biochemical Assay for CDK7: The inhibitory activity of the test compounds was assessed by the LANCE TR-FRET assay, which detects the ATP-dependent phosphorylation of an ULight-myelin basic protein (MBP) substrate peptide (100 nM) by CDK7 (10 nM). Briefly, the enzyme reaction was run in reaction buffer (20 mM HEPES (pH 7.5), 10 mM MgCl2, 0.01% Triton x, 100 μM Sodium Orthovanadate, 1 mM DTT). The assay was performed in 384-well plate. The end concentration of the ATP substrate was 1 mM/100 μM, and that of the ULight-MBP substrate peptide was 100 nM, and of CDK7 was 10 nM. Pre-incubation of the compound and enzyme was performed for 60 min at room temperature. After 60 min incubation at room temperature, the reaction was terminated by the addition of 40 mM EDTA and 1 nM Eu-labeled anti-phospho-MBP-binding protein antibody in the buffer. Time-resolved fluorescence (excitation, 320 nm; emission donor, 615 nm; emission acceptor, 665 nm) was monitored by using 2030 multilabel reader Victor5 (PerkinElmer). The readout was calculated as (acceptor counts/donor counts)×1000. The IC50 values were derived by fitting a sigmoidal dose-response curve to a plot of assay readout over inhibitor concentration. All fits were computed with the program Prism 5.03 (Graph Pad Software, San Diego, Calif.).

Cyclin-dependent kinase 7, sequence (P50613 whole entry): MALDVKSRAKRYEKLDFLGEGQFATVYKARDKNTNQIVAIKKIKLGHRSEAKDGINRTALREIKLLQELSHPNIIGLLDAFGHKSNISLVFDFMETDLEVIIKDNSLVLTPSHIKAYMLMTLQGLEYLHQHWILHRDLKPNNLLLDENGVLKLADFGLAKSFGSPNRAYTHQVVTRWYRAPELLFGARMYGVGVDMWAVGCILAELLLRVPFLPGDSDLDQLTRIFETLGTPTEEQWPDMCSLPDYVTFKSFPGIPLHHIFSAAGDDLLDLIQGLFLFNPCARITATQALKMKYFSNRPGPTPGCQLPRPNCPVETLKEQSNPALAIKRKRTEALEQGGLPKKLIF

C=CC(=O)N1CCC=C(c2ccc(CC(=O)Nc3cc(C4CC4)[nH]n3)cn2)C1
IC50: 1.73 µM
